Measurements published in ChEMBL document CHEMBL1201862, “PubChem BioAssay data set” (2004).
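Following 48 hours of exposure in 96-well plates, responses at five concentrations were used to interpolate endpoints linearly. Abbreviation: GI50, concentration required for 50% inhibition of growth.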 Calls of active or inactive are those of the source. Rule as the data show it: active = GI50 up to about 1.1 µM and inactive = higher.

What was measured:
Experiment in all cases: growth of human tumour cells (NCI), 48 h
COLO 205 = tested on: COLO 205
EKVX = tested on: EKVX
HCC 2998 = tested on: HCC 2998
HCT-116 = tested on: HCT-116
HOP-92 = tested on: HOP-92
LOX IMVI = tested on: LOX IMVI
MOLT-4 = tested on: MOLT-4
Malme-3M = tested on: Malme-3M
NCI-H226 = tested on: NCI-H226
NCI-H460 = tested on: NCI-H460
OVCAR-4 = tested on: OVCAR-4
RXF 393 = tested on: RXF 393
SF-268 = tested on: SF-268
UACC-257 = tested on: UACC-257
UO-31 = tested on: UO-31
SK-MEL-5 = tested on: SK-MEL-5
DU-145 = tested on: DU-145
MDA-MB-231 = tested on: MDA-MB-231
MDA-N = tested on: MDA-N

## CN(Cc1ccccc1)C(=O)c1ccccc1C(=O)O
COLO 205
  GI50: > 100 µM (inactive)
EKVX
  GI50: > 100 µM (inactive)
HCC 2998
  GI50: > 100 µM (inactive)
HCT-116
  GI50: > 100 µM (inactive)
HOP-92
  GI50: > 100 µM (inactive)
LOX IMVI
  GI50: > 100 µM (inactive)
MOLT-4
  GI50: > 100 µM (inactive)
Malme-3M
  GI50: > 100 µM (inactive)
NCI-H226
  GI50: > 100 µM (inactive)
NCI-H460
  GI50: > 100 µM (inactive)
OVCAR-4
  GI50: > 100 µM (inactive)
RXF 393
  GI50: > 100 µM (inactive)
SF-268
  GI50: > 100 µM (inactive)
UACC-257
  GI50: > 100 µM (inactive)
UO-31
  GI50: > 100 µM (inactive)

## N[C@H]1C2C3CC4C5CC(C42)C1(c1ccccc1)C53 (stereo partly specified)
COLO 205
  GI50: 81.3 µM (inactive)
EKVX
  GI50: > 100 µM (inactive)
HCC 2998
  GI50: 29.7 µM (inactive)
HCT-116
  GI50: > 100 µM (inactive)
HOP-92
  GI50: 65.8 µM (inactive)
LOX IMVI
  GI50: > 100 µM (inactive)
MOLT-4
  GI50: > 100 µM (inactive)
Malme-3M
  GI50: > 100 µM (inactive)
NCI-H226
  GI50: > 100 µM (inactive)
NCI-H460
  GI50: > 100 µM (inactive)
OVCAR-4
  GI50: > 100 µM (inactive)
RXF 393
  GI50: 45.1 µM (inactive)
SF-268
  GI50: > 100 µM (inactive)
SK-MEL-5
  GI50: > 100 µM (inactive)
UACC-257
  GI50: > 10 µM (inactive)
UO-31
  GI50: > 100 µM (inactive)

## Cc1cc(N(CCC#N)CCC#N)ccc1/C=C(\NC(=O)/C=C/c1ccccc1)NC(=O)Nc1ccc(Cl)cc1
COLO 205
  GI50: > 100 µM (inactive)
EKVX
  GI50: 47.9 µM (inactive)
HCC 2998
  GI50: 58.7 µM (inactive)
HCT-116
  GI50: 23.6 µM (inactive)
HOP-92
  GI50: 39.4 µM (inactive)
LOX IMVI
  GI50: 1.83 µM (inactive)
MOLT-4
  GI50: > 100 µM (inactive)
Malme-3M
  GI50: 73.6 µM (inactive)
NCI-H226
  GI50: 30.9 µM (inactive)
NCI-H460
  GI50: > 100 µM (inactive)
OVCAR-4
  GI50: 18.9 µM (inactive)
RXF 393
  GI50: 15.7 µM (inactive)
SF-268
  GI50: 62.2 µM (inactive)
SK-MEL-5
  GI50: 3.83 µM (inactive)
UACC-257
  GI50: > 100 µM (inactive)
UO-31
  GI50: 74.1 µM (inactive)

## N/N=C1\C(=O)N(C2CCCCCC2)C(=O)C1C(=O)NC1CCCCCC1 (stereo unspecified)
COLO 205
  GI50: 35.1 µM (inactive)
EKVX
  GI50: 32.7 µM (inactive)
HCC 2998
  GI50: 25.6 µM (inactive)
HOP-92
  GI50: 21.3 µM (inactive)
MOLT-4
  GI50: 22 µM (inactive)
Malme-3M
  GI50: 24.7 µM (inactive)
NCI-H460
  GI50: 42.7 µM (inactive)
OVCAR-4
  GI50: 28.3 µM (inactive)
RXF 393
  GI50: 40 µM (inactive)
SF-268
  GI50: 36.9 µM (inactive)
SK-MEL-5
  GI50: 17.1 µM (inactive)
UACC-257
  GI50: 55.3 µM (inactive)
UO-31
  GI50: 20.3 µM (inactive)

## COC(=O)[C@@H]1c2[nH]c3ccccc3c2C[C@@H]2c3ccccc3NC(=O)[C@@H]21
COLO 205
  GI50: > 82.2 µM (inactive)
EKVX
  GI50: 53.5 µM (inactive)
HCC 2998
  GI50: > 100 µM (inactive)
HCT-116
  GI50: 37.3 µM (inactive)
LOX IMVI
  GI50: 31 µM (inactive)
MOLT-4
  GI50: > 100 µM (inactive)
Malme-3M
  GI50: > 46.5 µM (inactive)
NCI-H226
  GI50: 18.3 µM (inactive)
NCI-H460
  GI50: > 100 µM (inactive)
RXF 393
  GI50: 26.2 µM (inactive)
SF-268
  GI50: > 31.6 µM (inactive)
SK-MEL-5
  GI50: > 54 µM (inactive)
UACC-257
  GI50: > 85.1 µM (inactive)
UO-31
  GI50: > 100 µM (inactive)

## C/C(N)=[N+](/C)[O-]
COLO 205
  GI50: 17.2 µM (inactive)
EKVX
  GI50: > 100 µM (inactive)
HCC 2998
  GI50: 36.9 µM (inactive)
HCT-116
  GI50: > 100 µM (inactive)
HOP-92
  GI50: > 100 µM (inactive)
LOX IMVI
  GI50: 15.5 µM (inactive)
MOLT-4
  GI50: > 100 µM (inactive)
Malme-3M
  GI50: > 100 µM (inactive)
NCI-H226
  GI50: > 100 µM (inactive)
NCI-H460
  GI50: 25.4 µM (inactive)
OVCAR-4
  GI50: 38.5 µM (inactive)
RXF 393
  GI50: > 100 µM (inactive)
SF-268
  GI50: 46.3 µM (inactive)
SK-MEL-5
  GI50: > 100 µM (inactive)
UACC-257
  GI50: > 100 µM (inactive)
UO-31
  GI50: > 100 µM (inactive)

## CNc1nnc(CNc2ccc(-c3nnc(NC)n3N)cc2)n1N
COLO 205
  GI50: > 100 µM (inactive)
DU-145
  GI50: > 100 µM (inactive)
EKVX
  GI50: > 100 µM (inactive)
HCC 2998
  GI50: < 0.01 µM (active)
HCT-116
  GI50: > 100 µM (inactive)
HOP-92
  GI50: > 100 µM (inactive)
LOX IMVI
  GI50: > 100 µM (inactive)
MDA-MB-231
  GI50: > 100 µM (inactive)
MDA-N
  GI50: > 100 µM (inactive)
MOLT-4
  GI50: > 100 µM (inactive)
NCI-H226
  GI50: > 100 µM (inactive)
NCI-H460
  GI50: > 100 µM (inactive)
OVCAR-4
  GI50: > 100 µM (inactive)
RXF 393
  GI50: > 100 µM (inactive)
SF-268
  GI50: > 100 µM (inactive)
SK-MEL-5
  GI50: > 100 µM (inactive)
UACC-257
  GI50: > 100 µM (inactive)
UO-31
  GI50: > 100 µM (inactive)

## Oc1c(NCn2nc(CCCCCCCCc3nn(CNc4ccc5ccccc5c4O)c(=S)o3)oc2=S)ccc2ccccc12
COLO 205
  GI50: > 100 µM (inactive)
DU-145
  GI50: > 100 µM (inactive)
EKVX
  GI50: > 100 µM (inactive)
HCC 2998
  GI50: > 100 µM (inactive)
HCT-116
  GI50: 11.9 µM (inactive)
HOP-92
  GI50: > 100 µM (inactive)
MDA-MB-231
  GI50: 20 µM (inactive)
MDA-N
  GI50: 17.2 µM (inactive)
MOLT-4
  GI50: > 100 µM (inactive)
Malme-3M
  GI50: 75.2 µM (inactive)
NCI-H226
  GI50: > 100 µM (inactive)
NCI-H460
  GI50: > 100 µM (inactive)
OVCAR-4
  GI50: 76.2 µM (inactive)
RXF 393
  GI50: 30.1 µM (inactive)
SF-268
  GI50: > 100 µM (inactive)
SK-MEL-5
  GI50: 30.4 µM (inactive)
UACC-257
  GI50: 75.5 µM (inactive)
UO-31
  GI50: 98.2 µM (inactive)
